Results published in patent US6579857B1, “Combination cancer therapy comprising adenosine and deaminase enzyme inhibitors” (Evanston Northwestern Healthcare Research Institute, priority 1999, dated 2003).
Read-outs that look alike come from different tables or passages of the source.

Key:
[1] = tested on: OVCAR3 ovarian cancer cells; assay: MTT cell viability assay, OVCAR3; settings: for viability at 10 µM: Homo sapiens, OVCAR-3, 60 h, read-out: cell viability as a percentage of control
Description: For the experiments MCF7 breast cancer cells and OVCAR3 ovarian cancer cells (both obtained from the American Type Culture Collection (ATCC), Manassas, Va.) were cultured in RPMI 1640 media containing 10% fetal calf serum (Life Technologies, Gaithersburg, Md.). After 24 hours of culturing at 37° C. in 5% CO2, additional medium was added containing either adenosine (final concentration 10 μM), coformycin (final concentration 10 μM), or 10 μM each of adenosine and coformycin. Additional media alone was added to control cultures.
The cells were cultured in these chemotherapeutic media for an additional 60 hours, at which time the viability of the cells were determined using an MTT assay (Celltitre 98 Aqueous 1, Promega, Madison, Wis.).
The OVCAR3 ovarian cancer cell line was cultured as described in Example 1 for 24 hours and then treated with either 5 μM (final concentration) dipyridimole alone; 10 μM adenosine plus 10 μM coformycin alone; or the combination of these two treatments. In a control sample, culture media alone was added. The cultures were grown for an additional 60 hours and then analyzed for cell growth.
The same experiments were repeating using 5 μM (final concentration) 5′-amino-5′-deoxyadenosine alone; 5 μM adenosine plus 10 μM coformycin alone; or the combination of these two treatments.
The procedures described in Example 1 were repeated using the OVCAR 3 ovarian cancer cell line, and using as therapeutic agents 10 μM coformycin in combination with 10 μM of either adenosine, 2-chloroadenosine, 8-chloroadenosine, or 8-chloro-cAMP.

MCF7 breast cancer cells = assay: MTT cell viability assay, MCF7; format: cell-based; settings: Homo sapiens, read-out: cell viability as a percentage of control
Description: (§1) Additional media alone was added to control cultures.

[2] = tested on: cell lines OVCAR 3, OVCAR 5, MCF7, and HT 29; assay: Adenosine with CF or dCF, tumor cell toxicity assay (Example 4); format: cell-based; settings: 5 μM adenosine with 5 μM CF or 5 μM dCF; 60 hours
Description: as §1
The procedures described in Example 1 were repeated using cell lines OVCAR 3, OVCAR 5, MCF7, and HT 29 and using 5 μM adenosine in combination with either 5 μM CF or 5 μM dCF as the therapeutic combination of agents.

[3] = target: T1, adenosine deaminase (ADA) (Homo sapiens, UniProt P00813); settings: Cha et al. 1975; Agarwal et al. 1977; cited from earlier work
T1 sequence (P00813 1-363): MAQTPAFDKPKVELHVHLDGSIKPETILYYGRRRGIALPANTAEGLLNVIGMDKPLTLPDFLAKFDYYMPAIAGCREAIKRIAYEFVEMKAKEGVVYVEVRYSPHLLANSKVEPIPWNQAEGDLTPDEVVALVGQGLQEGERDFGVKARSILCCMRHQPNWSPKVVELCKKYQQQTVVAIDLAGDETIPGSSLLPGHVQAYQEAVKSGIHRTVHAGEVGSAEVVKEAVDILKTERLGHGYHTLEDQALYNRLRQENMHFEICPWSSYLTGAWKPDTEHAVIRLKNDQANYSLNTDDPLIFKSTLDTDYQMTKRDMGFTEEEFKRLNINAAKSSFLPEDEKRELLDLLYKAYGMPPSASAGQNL

AMPDA = settings: CF versus dCF; cited from earlier work
[4] = tested on: two cultured human colon carcinoma cell lines and Chinese hamster ovary (CHO K-I) cells; settings: cited from earlier work; for toxicity when used alone: deoxycoformycin .001 to 1 μM, 2′-deoxyadenosine 0 to 500 μM
neuronal cell = settings: dose-dependent; cited from earlier work
mouse melanoma cells = settings: cited from earlier work
lymphoid cells = settings: cited from earlier work
fibroblasts = settings: cited from earlier work

**Q.** With `OCCN(CCO)c1nc(N2CCCCC2)c2nc(N(CCO)CCO)nc(N3CCCCC3)c2n1` [dipyridamole] as the compound, how does the “cell growth with protective agent added to Ado/CF” value ([1]; OVCAR3, 5 μM dipyridimole + 10 μM adenosine + 10 μM coformycin, 60 hours) read?
**A.** The value was “approximating that of the untreated control”.

**Q.** And the “cell growth as percentage of the control” value ([1]; OVCAR3, 5 μM dipyridimole alone or 10 μM adenosine plus 10 μM coformycin alone, 60 hours)?
**A.** Its value is “comparable to the control”.

**Q.** Which “block of toxic effects of Ado/CF combination” value ([1]; OVCAR3, 5 μM 5′-amino-5′-deoxyadenosine + 5 μM adenosine + 10 μM coformycin, 60 hours) does the source give for `NC[C@H]1O[C@@H](n2cnc3c(N)ncnc32)[C@H](O)[C@@H]1O` [5′-amino-5′-deoxyadenosine] here?
**A.** The value was “essentially completely block”.

**Q.** What about the “cell growth, agent alone” value ([1]; OVCAR3, 5 μM 5′-amino-5′-deoxyadenosine alone, 60 hours) of the same compound?
**A.** The value was ~80 % of control.

**Q.** Which results are given for `OC[C@H]1O[C@@H](n2cnc3c2N=CNC[C@H]3O)[C@H](O)[C@@H]1O` [coformycin]?
**A.** viability at 10 µM (MCF7 breast cancer cells; MCF7, 60 h): > 100%; viability at 10 µM [1]: > 100%; potentiation of adenosine toxicity [2]: consistently potentiated to toxicity of the adenosine to a greater extent than the deoxycoformycin; Ki [3]: 0.025 nM; fold more potent inhibitor of AMPDA (AMPDA): 50 fold

**Q.** For `Nc1ncnc2c1ncn2[C@H]1C[C@H](O)[C@@H](CO)O1` [2′-deoxyadenosine], which “toxicity when used alone” value [4] is on record?
**A.** The value was “Neither compound was reported to be toxic when used alone”.

**Q.** And the “concentration required to approach full cell growth inhibition” value ([4]; in combination with deoxycoformycin)?
**A.** The value was 50 to 150 µM.

**Q.** What about the “concentration of maximal neuronal cell toxicity” value (neuronal cell) of the same compound?
**A.** The value was 300 µM.

**Q.** Which “toxicity when used alone” value [4] does the source give for `OC[C@H]1O[C@@H](n2cnc3c2NC=NC[C@H]3O)C[C@@H]1O` [deoxycoformycin] here?
**A.** The value was “Neither compound was reported to be toxic when used alone”.

**Q.** With `Nc1ncnc2c1ncn2[C@@H]1O[C@H](CO)[C@@H](O)[C@H]1O` [adenosine] as the compound, how does the viability at 10 µM (MCF7 breast cancer cells; MCF7, 10 μM final concentration of each agent, 60 hours) read?
**A.** The viability at 10 µM was over 100%.

**Q.** And the viability at 10 µM [1]?
**A.** The viability at 10 µM was over 100%.

**Q.** And the “concentration giving 80% growth inhibition” value (mouse melanoma cells)?
**A.** The value was 50 µM.

**Q.** And the “concentration required for similar (80%) growth inhibition” value (lymphoid cells)?
**A.** The value was 5 µM.

**Q.** What about the “concentration required for similar (80%) growth inhibition” value (fibroblasts) of the same compound?
**A.** Its value is 400 µM.
